From article PMC10982501, “Synthesis and biological evaluation of novel benzothiazole derivatives as potential anticancer and antiinflammatory agents” (Frontiers in Chemistry, 2024)

Assays:
[1] = tested on: human cancer cell lines; design: method as in Mortimer et al., 2006; details: particularly non-small cell lung, colon and breast cancer lines; ref Mortimer et al., 2006; cited from earlier work
[2] = tested on: H1299 cells; test: MTT cell proliferation assay, H1299; format: cell-based, human; details: Homo sapiens, NCI-H1299, 48 h; for IC50: read-out: IC50 (mean ± SD) H1299; for inhibition at 10 µM: read-out: H1299 cells inhibition rate
Protocol: (§1) Beas-2b, A431, A549 and H1299 cells were cultured in 96-well plates (5 × 10^3 cells/well) for 16 h, respectively. Subsequently, positive compound 4i and 25 newly synthesized compounds were added at a final concentration of 10 μM or gradient concentrations (0.01, 0.1, 0.5, 1, 5 and 10 μM), co-incubated with the cells for 48 h. MTT (M8180, Solarbio) solutions (5 mg/mL) were then added and incubated for 4 h in the dark. Then, formazan crystals were dissolved with DMSO (D8371, Solarbio), followed by shaking on a shaker (DRAGONLAB, China) for 10 min. Finally, absorbance at 490 nm wavelength for each well was measured with Microplate reader (Molecular Devices, United States) ([Tang et al., 2020]; [Lee et al., 2021]). The results are expressed as mean ± SD from three independent experiments. Cells inhibition rates or IC50 values were calculated using GraphPad Prism 9.5.0.

[3] = tested on: A431 cells; test: Flow cytometry analysis of cell cycle, A431; format: cell-based, human; details: A431, 24 h
Protocol: (§2) The A431 and A549 cells were cultured in 6-well plates (1×10^5 cells/mL) for 16 h. Subsequently, they were treated with different concentrations (1, 2 and 4 μM) of either B7 or 4i (4 μM) for 24 h. Cells were collected, mixed by adding 75% ethanol with shaking on a vortex shaker, and placed in the refrigerator at 4°C for overnight fixation. The cells were incubated with PI-Raze solution for 15 min at room temperature, protected from light, according to the instructions of BD Cycletest Plus DNA Reagent Kit (340242, BD), and detected by FACS Calibur flow cytometry ([Oh et al., 2023]), and subsequent data analysis was performed using FlowJo 10.6.2.

[4] = tested on: A431 cells; test: MTT cell proliferation assay, A431; format: cell-based, human; details: Homo sapiens, A-431, 48 h; for IC50: read-out: IC50 (mean ± SD) A431; for inhibition at 10 µM: read-out: A431 cells inhibition rate
Protocol: as §1

[5] = tested on: A549 cells; test: MTT cell proliferation assay, A549; format: cell-based, human; details: Homo sapiens, A549, 48 h; for IC50: read-out: IC50 (mean ± SD) A549; for inhibition at 10 µM: read-out: A549 cells inhibition rate
Protocol: as §1

[6] = tested on: A549 cells; test: Flow cytometry analysis of cell cycle, A549; format: cell-based, human; details: A549, 24 h
Protocol: as §2

[7] = tested on: non-small cell lung cancer cell line HOP-92; design: method as in Noolvi et al., 2012; details: ref Noolvi et al., 2012; cited from earlier work
[8] = tested on: IL-6; test: ELISA of IL-6 in LPS-stimulated RAW264.7 cells; format: cell-based, mouse; details: 10 μM, RAW264.7, LPS, 24 h, vs blank control
Protocol: (§3) RAW264.7 cells were cultured in 6-well plates (2×10^5 cells/well) for 24 h and treated with 25 newly synthesized compounds (final concentration at 10 μM) for 30 min, respectively. Subsequently, the cells were stimulated with 1 μL of LPS (500 ng/mL) (L8880, Solarbio). After 24 h, the supernatant was collected and analyzed using an ELISA kit (EK206 and EK182, MULTISCIENCES) to quantify the levels of inflammatory cytokines IL-6 and TNF-α ([Li et al., 2021]).

[9] = tested on: Beas-2b cells; test: MTT cell proliferation and toxicity assay, Beas-2b; format: cell-based, human; details: Homo sapiens, BEAS-2B, 48 h, read-out: Beas-2b cells inhibition rate
Protocol: as §1

[10] = Oil-water partition coefficient (log P) measurement; format: physicochemical; details: n-octanol/water, room temperature
Protocol: The partition coefficient between n-octanol and water (log Po/w) is the classical descriptor for Lipophilicity ([Daina et al., 2017]). The test methodology followed previously published protocols ([Wang et al., 2021]). At room temperature, two large Erlenmeyer flasks were taken and filled with n-octanol and water, respectively. The flasks were placed in a constant temperature shaker at 150 rpm for 24 h to saturate the solvents. The mixtures were then transferred to separating funnels under normal pressure to obtain water-saturated n-octanol and n-octanol-saturated water for subsequent use. The target compound (2 mg) was accurately weighed and placed in a 2 mL brown volumetric flask. Anhydrous methanol was added to ultrasonically dissolve the compound, and the mixture was diluted to volume and thoroughly shaken to prepare a 1 mg/mL stock solution. The stock solution was further diluted to obtain 1, 1.5, 2, 2.5, 5 and 10 μg/mL reference solutions for construction of a standard curve using a UV-visible spectrophotometer. An excess amount of the analyte was dissolved in water-saturated n-octanol, and the mixture was shaken at 150 rpm for 24 h at constant temperature to obtain a saturated solution. The saturated solution was allowed to stand, centrifuged, and 1 mL of the supernatant was transferred to a 4 mL centrifuge tube. N-octanol saturated water (1 mL) was added, and the mixture was shaken at 150 rpm for 24 h at constant temperature. After standing for 8 h, the mixture was centrifuged. Appropriate amounts of the n-octanol phase before and after equilibration were diluted with methanol, and concentrations were determined from the standard curve to obtain C0 and C1. The concentration in the n-octanol saturated aqueous phase, Cw, was calculated as Cw = C0 - C1. Thus, log Po/w = […].

[11] = tested on: TNF-α; test: ELISA of TNF-α in LPS-stimulated RAW264.7 cells; format: cell-based, mouse; details: 10 μM, RAW264.7, LPS, 24 h, vs blank control
Protocol: as §3

[12] = tested on: A431 cells; test: Wound healing analysis of cell migration, A431; format: cell-based, human; details: A431, 4 μM, 48 h, compared to 4i
Protocol: (§4) The A431 and A549 cells were cultured in 6-well plates (5×10^5 cells/well). When the cell confluency reached approximately 90%, used a sterile 10 μL pipette tip to create three parallel scratches evenly. Subsequently, rinsed with PBS to remove floating cells, and then treated with B7 and 4i at final concentrations of 4 μM. Captured images using a microscope camera system (Nikon, JPN) at 0 and 48 h post-treatment ([Xu et al., 2023]).

[13] = tested on: A549 cells; test: Flow cytometry analysis of cell apoptosis, A549; format: cell-based, human; details: A549, 1, 2 and 4 μM, 24 h
Protocol: (§5) The A431 and A549 cells were cultured in 6-well plates (1×10^5 cells/mL) for 16 h. Subsequently, cells were treated with different concentrations (1, 2 and 4 μM) of either B7 or 4i for 24 h. Then, the cells were collected, washed, and stained with the FITC Annexin V Apoptosis Detection Kit I (556547, BD) ([Jiang et al., 2017]). Sample testing was performed using a FACS Calibur Flow Cytometer (BD, United States), and subsequent data analysis was performed using FlowJo 10.6.2.

[14] = tested on: A549 cells; test: Wound healing analysis of cell migration, A549; format: cell-based, human; details: A549, 4 μM, 48 h, compared to 4i
Protocol: as §4

[15] = tested on: AKT; test: Western blot, AKT phosphorylation; format: cell-based, human; details: A431 and A549 cells, 1, 5 and 10 μM, 2 h
Protocol: (§6) The A431 and A549 cells were cultured in 6-well plates (2×10^5 cells/well) for 2 h and treated with different concentrations of B7(1, 5, and 10 μM) or 4i (10 μM). The corresponding cells were collected, washed with PBS (P1020, Solarbio), and lysed with RIPA buffer (R0010, Solarbio) to extract the total proteins. The extracted protein was loaded, subjected to SDS-PAGE electrophoresis (Bio-Rad) ([Xu et al., 2023]), and then the protein was transferred to a PDVF membrane (IPVH00010, Millipore) and incubated in the corresponding Primary Antibody AKT (9272, Cell Signaling Technology), phospho-AKT (4058, Cell Signaling Technology), ERK (A4782, ABclonal Technology), phospho-ERK (AP0974, ABclonal Technology) and GAPDH (AB0037, Abways Technology) overnight. Then, the Primary Antibody was recovered and enzyme-labeled secondary antibodies Goat Anti-Rabbit IgG HRP (H + L) (A0208, Beyotime Technology) were used. Finally, Imaging was performed on a gel Imaging System (Bio-Rad, United States) using the Ultra-sensitive ECL Chemiluminescence Assay Kit (P0018AS, Beyotime Technology).

[16] = tested on: A431 cells; test: Flow cytometry analysis of cell apoptosis, A431; format: cell-based, human; details: A431, 1, 2 and 4 μM, 24 h
Protocol: as §5

[17] = tested on: ERK; test: Western blot, ERK phosphorylation; format: cell-based, human; details: A431 and A549 cells, 1, 5 and 10 μM, 2 h
Protocol: as §6

[18] = tested on: common anti-tumor receptor kinases; test: Activity of common anti-tumor receptor kinases

Row | Structure (SMILES) | IC50 [2] [nM] | IC50 [4] [nM] | IC50 [5] [nM] | logP [10] | cell cycle arrest, in words [3] | cell cycle arrest, in words [6] | inhibition at 10 µM [2] [%] | effect on IL-6 expression [8] | inhibition at 10 µM [4] [%] | inhibition at 10 µM [5] [%] | inhibition at 10 µM [9] [%] | effect on TNF-α expression [11] | also measured
1 | COc1ccc(-c2nc3cc(F)ccc3s2)cc1OC [PMX610, 2-(3,4-dimethoxyphenyl)-5-fluorobenzothiazole] |  |  |  |  |  |  |  |  |  |  |  |  | in vitro anti-tumor properties in human cancer cell lines, in words [1]: potent and selective in vitro anti-tumor properties
2 | Clc1cccc(Cl)c1Nc1nc2cccc(Cl)c2s1 [4i, 7-chloro-N-(2,6-dichlorophenyl) benzo[d] thiazole-2-amine, reference compound] | 2480 ± 530 | 2000 ± 410 | 1090 ± 320 |  | G2 phase cell cycle arrest effect | G2 phase cell cycle arrest effect |  |  |  |  |  |  | anticancer activity against HOP-92, in words [7]: promising anticancer activity
3 | CCOC(=O)COc1ccccc1-c1nc2ccccc2s1 [A1, Ethyl 2-(2-(benzo[d]thiazol-2-yl)phenoxy)acetate] |  |  |  | 2.35 ± 0.21 |  |  | 49.5 ± 0.84 | significant inhibitory effects | 45.6 ± 1.21 | 42.3 ± 1.15 | 10.2 ± 0.92 | significant inhibitory effects | 

More lines, main results first:

Row | IC50 [2] [nM] | IC50 [4] [nM] | IC50 [5] [nM] | logP [10] | Structure (SMILES) | cell cycle arrest, in words [3] | cell cycle arrest, in words [6] | inhibition at 10 µM [2] [%] | effect on IL-6 expression [8] | inhibition at 10 µM [4] [%] | inhibition at 10 µM [5] [%] | inhibition at 10 µM [9] [%] | effect on TNF-α expression [11] | also measured
4 | 1680 ± 120 | 1510 ± 200 | 960 ± 240 | 3.25 ± 0.24 | O=[N+]([O-])c1ccc(CNc2nc3ccc(Cl)cc3s2)cc1 [B7, 6-chloro-N-(4-nitrobenzyl)benzo[d]thiazol-2-amine] | G2 phase cell cycle arrest effect | G2 phase cell cycle arrest effect |  | significant inhibitory effects |  |  | 16.6 ± 1.36 | significant inhibitory effects | migration inhibitory effect, in words [12]: slightly surpassed that of 4i; apoptosis rate, in words [13]: gradual increase in the apoptosis rate; inhibitory effect on cell migration, in words [14]: stronger inhibitory effect; AKT protein phosphorylation, in words [15]: markedly inhibit; apoptosis rate, in words [16]: gradual increase in the apoptosis rate; ERK protein phosphorylation, in words [17]: markedly inhibit; impact on common anti-tumor receptor kinases, in words [18]: minimal impact
5 |  |  |  | 5.82 ± 0.22 | Clc1ccc2nc(N(Cc3ccccc3)Cc3ccccc3)sc2c1 [D2, N,N-dibenzyl-6-chlorobenzo[d]thiazol-2-amine] |  |  | 46.9 ± 2.71 | significant inhibitory effects | 43.6 ± 1.39 | 40.3 ± 1.06 | 24.3 ± 3.1 | significant inhibitory effects | 
